Test results published in patent US9096593B2, “Compounds and methods for kinase modulation, and indications therefor” (Plexxikon Inc., priority 2009, dated 2015).
Read-outs that look alike come from different tables or passages of the source.

How the values were obtained:
BCR-FMS/BaF3 cells = BCR-FMS/BaF3 cells (Homo sapiens, UniProt P07333); assay: BCR-FMS/BaF3 cell proliferation assay (ATPlite); format: cell-based
Procedure, shortened: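 BCR-FMS/BaF3 cells at 2×10^5 cells/mL in growth media with 1 mg/mL G418, without WEHI/IL-3, treated with 8-point 1:3 compound titrations (top 10 μM final) for 3 days at 37 °C, 5% CO2. Cell number by ATPlite luminescence; IC50 from signal versus concentration.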

Fms kinase = Fms kinase (Homo sapiens (Human), UniProt P07333); assay: Fms kinase biochemical activity assay (AlphaScreen, biotin-(E4Y)10 phosphorylation)
Procedure, shortened: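 Recombinant human Fms phosphorylating 30 nM biotin-(E4Y)10 with 100 μM ATP (1 ng/well enzyme) in Hepes pH 7.5 buffer with Mg2+/Mn2+, 5% DMSO, 20 min at 30 °C. Phosphotyrosine detected by AlphaScreen streptavidin donor/PY20 acceptor beads; IC50 from signal versus compound concentration.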

c-Kit kinase = c-Kit kinase (Homo sapiens (Human), UniProt P10721); assay: c-Kit kinase biochemical activity assay (AlphaScreen, biotin-(E4Y)10 phosphorylation)
Method: In one assay the biochemical activity IC50 values are determined with respect to inhibition of c-Kit kinase activity, where inhibition of phosphorylation of a peptide substrate is measured as a function of compound concentration. Compounds to be tested are dissolved in DMSO to a concentration of 20 mM. These are diluted 30 μL into 120 μL of DMSO (4 mM) and 1 μL is added to an assay plate. These are then serially diluted […] (50 μL to 100 μL DMSO) for a total of 8 points. Plates are prepared such that each kinase reaction is 20 μL in 1× kinase buffer (25 mM HEPES, pH 7.5, 2 mM MgCl2, 2 mM MnCl2, 0.01% Tween-20, 1 mM DTT, 0.01% BSA), 5% DMSO and 100 μM ATP. Substrate is 30 nM biotin-(E4Y)10 (Millipore). C-kit kinase (obtained from Millipore (#14-559) or is prepared as described in U.S. Patent Application Publication Number 2009/0076046, the disclosure of which is hereby incorporated by reference as it relates to this assay) is at 0.75 ng per sample. After incubation of the kinase reaction for 1 hour at room temperature, 5 μL of donor beads (Streptavidin coated beads (Perkin Elmer Life Science) final concentration 10 μg/mL) in stop buffer (25 mM Hepes pH 7.5, 100 mM EDTA, 0.01% BSA) is added, the sample is mixed and incubated for 20 minutes at room temperature before adding 5 μL of acceptor beads (PY20 coated beads (Perkin Elmer Life Science) final concentration 10 μg/mL) in stop buffer. The samples are incubated for 60 minutes at room temperature and the signal per well is read on Envision reader. […] The signal vs. compound concentration is used to determine the IC50.

[1] = Kit IC50/Fms IC50, BCR-KIT/BaF3 vs BCR-FMS/BaF3 cells
[2] = read-out: BCR/BaF3 (IC50 μM) Fms; BCR-FMS/BaF3 cells
[3] = read-out: Cell based (IC50 μM) BCR/BaF3 (Fms); BCR-FMS/BaF3 cells, 3 days
[4] = 100 μM ATP, read-out: Biochemical (IC50 μM) Fms
[5] = read-out: Biochemical activity (IC50 μM) Fms

Chain of c-Kit kinase (P10721 26-976): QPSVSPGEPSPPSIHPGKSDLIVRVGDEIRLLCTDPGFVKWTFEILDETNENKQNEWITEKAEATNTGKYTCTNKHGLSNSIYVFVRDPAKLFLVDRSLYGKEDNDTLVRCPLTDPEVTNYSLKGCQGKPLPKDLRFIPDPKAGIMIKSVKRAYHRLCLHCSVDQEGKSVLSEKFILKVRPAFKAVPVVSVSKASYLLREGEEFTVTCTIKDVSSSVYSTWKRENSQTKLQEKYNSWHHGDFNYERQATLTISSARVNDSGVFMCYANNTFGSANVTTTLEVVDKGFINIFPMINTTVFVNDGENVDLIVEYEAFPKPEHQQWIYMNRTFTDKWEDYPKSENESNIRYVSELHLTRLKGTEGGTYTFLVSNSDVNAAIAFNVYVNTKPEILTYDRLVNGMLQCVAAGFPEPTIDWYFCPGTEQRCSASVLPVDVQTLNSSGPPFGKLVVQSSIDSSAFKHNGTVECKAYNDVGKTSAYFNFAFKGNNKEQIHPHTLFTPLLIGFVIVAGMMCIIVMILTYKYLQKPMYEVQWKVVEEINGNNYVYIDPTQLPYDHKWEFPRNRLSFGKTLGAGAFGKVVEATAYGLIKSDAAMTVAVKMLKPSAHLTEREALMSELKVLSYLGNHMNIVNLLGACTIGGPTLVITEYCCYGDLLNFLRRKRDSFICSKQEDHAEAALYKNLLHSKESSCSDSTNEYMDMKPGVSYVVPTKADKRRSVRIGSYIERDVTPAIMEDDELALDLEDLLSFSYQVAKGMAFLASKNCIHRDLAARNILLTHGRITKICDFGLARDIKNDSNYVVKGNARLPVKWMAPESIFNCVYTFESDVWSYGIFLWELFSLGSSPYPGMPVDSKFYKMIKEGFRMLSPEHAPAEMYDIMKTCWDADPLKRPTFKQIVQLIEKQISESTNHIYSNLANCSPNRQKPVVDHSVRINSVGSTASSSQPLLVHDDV
Chain of Fms kinase (P07333 20-972): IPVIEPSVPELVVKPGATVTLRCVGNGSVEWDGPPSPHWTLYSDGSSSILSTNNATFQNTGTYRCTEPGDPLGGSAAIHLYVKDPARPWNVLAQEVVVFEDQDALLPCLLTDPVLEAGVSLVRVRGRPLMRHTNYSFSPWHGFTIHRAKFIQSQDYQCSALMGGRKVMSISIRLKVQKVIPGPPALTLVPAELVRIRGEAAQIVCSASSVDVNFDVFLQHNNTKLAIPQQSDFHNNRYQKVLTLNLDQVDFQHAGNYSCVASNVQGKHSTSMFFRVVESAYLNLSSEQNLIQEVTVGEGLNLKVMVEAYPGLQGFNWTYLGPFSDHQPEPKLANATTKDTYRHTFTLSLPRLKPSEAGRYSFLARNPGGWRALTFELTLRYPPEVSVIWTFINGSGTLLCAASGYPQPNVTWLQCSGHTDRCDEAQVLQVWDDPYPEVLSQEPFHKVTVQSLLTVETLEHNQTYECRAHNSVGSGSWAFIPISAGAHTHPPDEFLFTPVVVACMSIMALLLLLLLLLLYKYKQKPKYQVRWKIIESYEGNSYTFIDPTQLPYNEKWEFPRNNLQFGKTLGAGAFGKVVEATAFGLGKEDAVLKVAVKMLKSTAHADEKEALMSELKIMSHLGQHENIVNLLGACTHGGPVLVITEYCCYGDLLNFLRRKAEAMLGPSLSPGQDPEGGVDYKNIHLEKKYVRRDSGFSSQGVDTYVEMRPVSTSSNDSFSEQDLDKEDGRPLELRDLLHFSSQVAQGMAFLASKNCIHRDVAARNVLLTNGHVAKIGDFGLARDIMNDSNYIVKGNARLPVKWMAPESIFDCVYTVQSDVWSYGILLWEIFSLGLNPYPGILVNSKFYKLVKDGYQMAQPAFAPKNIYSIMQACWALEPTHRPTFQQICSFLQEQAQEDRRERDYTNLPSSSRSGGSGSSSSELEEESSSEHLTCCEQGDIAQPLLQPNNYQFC
Chain of BCR-FMS/BaF3 cells (P07333 20-972 limits assumed, change not shown): as the sequence (P07333 20-972) above

SMILES | BCR/BaF3 selectivity (Kit IC50/Fms IC50) (BCR-FMS/BaF3 cells; [1]) | IC50 (BCR-FMS/BaF3 cells; [2]) | IC50 (BCR-FMS/BaF3 cells; [3]) | IC50 (Fms kinase; [4]) | Biochemical activity selectivity (Kit IC50/Fms IC50) (Fms kinase) | IC50 (Fms kinase; [5]) | IC50 (c-Kit kinase) | IC50 (BCR-FMS/BaF3 cells; BCR-FMS/BaF3 cells; read-out: BCR/BaF3 (IC50 μM) Fms)
COc1cnc2[nH]cc(Cc3ccc(NCc4ccc(OC)nc4)nc3F)c2c1 [Compound P-2030, [6-Fluoro-5-(5-methoxy-1H-pyrrolo[2,3-b]pyridin-3-ylmethyl)-pyridin-2-yl]-(6-methoxy-pyridin-3-ylmethyl)-amine] | >20 | < 0.1 µM | < 0.1 µM | < 0.1 µM | <20 | < 0.1 µM | > 0.1 µM | 
Cc1cnc2[nH]cc(Cc3ccc(NCc4ccc(C(F)(F)F)nc4)nc3F)c2c1 [Compound P-2031, [6-Fluoro-5-(5-methyl-1H-pyrrolo[2,3-b]pyridin-3-ylmethyl)-pyridin-2-yl]-(6-trifluoromethyl-pyridin-3-ylmethyl)-amine] | >20 | < 0.1 µM | < 0.1 µM | < 0.1 µM | <20 | < 0.1 µM | > 0.1 µM | 
COc1cnc2[nH]cc(Cc3ccc(NCc4ccc(Cl)cc4)nc3F)c2c1 [Compound P-2032, (4-Chloro-benzyl)-[6-fluoro-5-(5-methoxy-1H-pyrrolo[2,3-b]pyridin-3-ylmethyl)-pyridin-2-yl]-amine] | <20 | < 0.1 µM | < 0.1 µM | < 0.1 µM | <20 | < 0.1 µM | < 0.1 µM | 
COc1ccnc2[nH]cc(Cc3ccc(NCc4ccc(Cl)cc4)nc3F)c12 [Compound P-2037, (4-Chloro-benzyl)-[6-fluoro-5-(4-methoxy-1H-pyrrolo[2,3-b]pyridin-3-ylmethyl)-pyridin-2-yl]-amine] | <20 | < 0.1 µM | < 0.1 µM | < 0.1 µM | <20 | < 0.1 µM | > 0.1 µM | 
COc1ccc(CNc2ncc(Cc3c[nH]c4ncc(Cl)cc34)cn2)cn1 [Compound P-2038, [5-(5-Chloro-1H-pyrrolo[2,3-b]pyridin-3-ylmethyl)-pyrimidin-2-yl]-(6-methoxy-pyridin-3-ylmethyl)-amine] | >20 | < 0.1 µM | < 0.1 µM | < 0.1 µM | <20 | < 0.1 µM | > 0.1 µM | 
COc1ncccc1CNc1ccc(Cc2c[nH]c3ncccc23)c(F)n1 [Compound P-2045, [6-Fluoro-5-(1H-pyrrolo[2,3-b]pyridin-3-ylmethyl)-pyridin-2-yl]-(2-methoxy-pyridin-3-ylmethyl)-amine] | >20 | < 0.1 µM |  |  | >20 | < 0.1 µM | > 0.1 µM | 
COc1ncccc1CNc1ccc(Cc2c[nH]c3ncc(C)cc23)c(F)n1 [Compound P-2052, [6-Fluoro-5-(5-methyl-1H-pyrrolo[2,3-b]pyridin-3-ylmethyl)-pyridin-2-yl]-(2-methoxy-pyridin-3-ylmethyl)-amine] | >20 | < 0.1 µM |  |  | >20 | < 0.1 µM | > 0.1 µM | 
COc1ccc(CNc2ncc(Cc3c[nH]c4ncc(C)cc34)cn2)cn1 [Compound P-2057, (6-Methoxy-pyridin-3-ylmethyl)-[5-(5-methyl-1H-pyrrolo[2,3-b]pyridin-3-ylmethyl)-pyrimidin-2-yl]-amine] | >20 | < 0.1 µM | < 0.1 µM | < 0.1 µM | <20 | < 0.1 µM | > 0.1 µM | 
COc1ncc(F)cc1CNc1ncc(Cc2c[nH]c3ncc(C)cc23)cn1 [Compound P-2061, (5-Fluoro-2-methoxy-pyridin-3-ylmethyl)-[5-(5-methyl-1H-pyrrolo[2,3-b]pyridin-3-ylmethyl)-pyrimidin-2-yl]-amine] | >20 | < 0.1 µM |  |  | >20 | < 0.1 µM | > 0.1 µM | 
Cc1cnc2[nH]cc(Cc3ccc(NCc4cnccc4C(F)(F)F)nc3F)c2c1 [Compound P-2062, [6-Fluoro-5-(5-methyl-1H-pyrrolo[2,3-b]pyridin-3-ylmethyl)-pyridin-2-yl]-(4-trifluoromethyl-pyridin-3-ylmethyl)-amine] | >20 | < 0.1 µM |  |  | >20 | < 0.1 µM | > 0.1 µM | 
FC(F)(F)c1ccncc1CNc1ccc(Cc2c[nH]c3ncc(Cl)cc23)cn1 [Compound P-2063, [5-(5-Chloro-1H-pyrrolo[2,3-b]pyridin-3-ylmethyl)-pyridin-2-yl]-(4-trifluoromethyl-pyridin-3-ylmethyl)-amine] | >20 | < 0.1 µM |  |  | <20 | < 0.1 µM | < 0.1 µM | 
COc1ncc(F)cc1CNc1ncc(Cc2c[nH]c3ncc(Cl)cc23)cn1 [Compound P-2064, [5-(5-Chloro-1H-pyrrolo[2,3-b]pyridin-3-ylmethyl)-pyrimidin-2-yl]-(5-fluoro-2-methoxy-pyridin-3-ylmethyl)-amine] | >20 | < 0.1 µM |  |  | >20 | < 0.1 µM | > 0.1 µM | 
Cc1cnc2[nH]cc(Cc3ccc(NCc4cnccc4C(F)(F)F)nc3)c2c1 [Compound P-2070, [5-(5-Methyl-1H-pyrrolo[2,3-b]pyridin-3-ylmethyl)-pyridin-2-yl]-(4-trifluoromethyl-pyridin-3-ylmethyl)-amine] | >20 |  |  |  | <20 | < 0.1 µM | < 0.1 µM | < 0.1 µM
COc1cc(CNc2ccc(Cc3c[nH]c4ncc(C)cc34)c(F)n2)c(F)cn1 [Compound P-2071, (5-Fluoro-2-methoxy-pyridin-4-ylmethyl)-[6-fluoro-5-(5-methyl-1H-pyrrolo[2,3-b]pyridin-3-ylmethyl)-pyridin-2-yl]-amine] | >20 | > 0.1 µM |  |  | >20 | < 0.1 µM | > 0.1 µM | 
COc1ncc(CNc2ncc(Cc3c[nH]c4ncc(C)cc34)cn2)cc1F [Compound P-2073, (5-Fluoro-6-methoxy-pyridin-3-ylmethyl)-[5-(5-methyl-1H-pyrrolo[2,3-b]pyridin-3-ylmethyl)-pyrimidin-2-yl]-amine] | >20 | < 0.1 µM |  |  | >20 | < 0.1 µM | > 0.1 µM | 
Cc1cnc2[nH]cc(Cc3cnc(NCc4ccc(Cl)nc4)nc3)c2c1 [Compound P-2078, (6-Chloro-pyridin-3-ylmethyl)-[5-(5-methyl-1H-pyrrolo[2,3-b]pyridin-3-ylmethyl)-pyrimidin-2-yl]-amine] | >20 | < 0.1 µM |  |  | >20 | < 0.1 µM | > 0.1 µM | 
Cc1cnc2[nH]cc(Cc3cnc(NCc4cccc(C)n4)nc3)c2c1 [Compound P-2079, (6-Methyl-pyridin-2-ylmethyl)-[5-(5-methyl-1H-pyrrolo[2,3-b]pyridin-3-ylmethyl)-pyrimidin-2-yl]-amine] | <20 | < 0.1 µM |  |  | <20 | < 0.1 µM | < 0.1 µM | 
Cc1cnc2[nH]cc(Cc3cnc(NCc4cccc(N5CCOCC5)n4)nc3)c2c1 [Compound P-2081, [5-(5-Methyl-1H-pyrrolo[2,3-b]pyridin-3-ylmethyl)-pyrimidin-2-yl]-(6-morpholin-4-yl-pyridin-2-ylmethyl)-amine] | <20 | > 0.1 µM |  |  | <20 | < 0.1 µM | < 0.1 µM | 
